According to patent EP3613735A1, “NOVEL SIRT 1 ACTIVATOR AND MEDICINAL USE THEREOF” (Pusan National University Industry - University Cooperation …, priority 2017, dated 2018):

Assays:
db/db mice = assay: Glucose tolerance test and fasting blood glucose in obese animal model; assay type: in vivo, mouse; conditions: for fasting blood glucose: oral 5 mg/kg daily, compared to db/db mouse group; for glucose tolerance (blood glucose concentration): three weeks after oral administration of 5 mg/kg daily, glucose 2 g/kg intraperitoneally after 12 hours fasting
Protocol: The metabolic disease control ability of Compound 32u was analyzed using db/db mice lacking an appetite-regulating hormone leptin receptor as an obese animal model. Compound 32u was orally administered to db/db mice (9 weeks old) at a concentration of 5 mg/kg daily for 4 weeks. Three weeks after oral administration of Compound 32u, a glucose tolerance test was performed. Mice were fasted for 12 hours or more, and glucose (2 g/kg) was injected intraperitoneally, and blood from the tail of the mouse was measured for blood glucose at each time using a glucometer ([…]). The metabolic disease control ability of Compound 70c was analyzed using db/db mice lacking an appetite-regulating hormone leptin receptor as an obese animal model. Compound 70c was orally administered to db/db mice (9 weeks old) at a concentration of 5 mg/kg daily for 4 weeks. Three weeks after oral administration of Compound 70c, a glucose tolerance test was performed. Mice were fasted for 12 hours or more, and glucose (2 g/kg) was injected intraperitoneally, and blood from the tail of the mouse was measured for blood glucose at each time using a glucometer ([…]).

SIRT 1 = target: T1, SIRT 1 (Homo sapiens, UniProt Q96EB6); assay: SIRT 1 fluorometric drug discovery kit (AK-555, Biomol), deacetylation of Fluor de Lys-SIRT 1 substrate; assay type: biochemical; conditions: 100 µM candidate vs 100 µM resveratrol positive control; 25 µM Fluor de Lys-Sirt1, 25 µM NAD+
T1 sequence (Q96EB6 1-747): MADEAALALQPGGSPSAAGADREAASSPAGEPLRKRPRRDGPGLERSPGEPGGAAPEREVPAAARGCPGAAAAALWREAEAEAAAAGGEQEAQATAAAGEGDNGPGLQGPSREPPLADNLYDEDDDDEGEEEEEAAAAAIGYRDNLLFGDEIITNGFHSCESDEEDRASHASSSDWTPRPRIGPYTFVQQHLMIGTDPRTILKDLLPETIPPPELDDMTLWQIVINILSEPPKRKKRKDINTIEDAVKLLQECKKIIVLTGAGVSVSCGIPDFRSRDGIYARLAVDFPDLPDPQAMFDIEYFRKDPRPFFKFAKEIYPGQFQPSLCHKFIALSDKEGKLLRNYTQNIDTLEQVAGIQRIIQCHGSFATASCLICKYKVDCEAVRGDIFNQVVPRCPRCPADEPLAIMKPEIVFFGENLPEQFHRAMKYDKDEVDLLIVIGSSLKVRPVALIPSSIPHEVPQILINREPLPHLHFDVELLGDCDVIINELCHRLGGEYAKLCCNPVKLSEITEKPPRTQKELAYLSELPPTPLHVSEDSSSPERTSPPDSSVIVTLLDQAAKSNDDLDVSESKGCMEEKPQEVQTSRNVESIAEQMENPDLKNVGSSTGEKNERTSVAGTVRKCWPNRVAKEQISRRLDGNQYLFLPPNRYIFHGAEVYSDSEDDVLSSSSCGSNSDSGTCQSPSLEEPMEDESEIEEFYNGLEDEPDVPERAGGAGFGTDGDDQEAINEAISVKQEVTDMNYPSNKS
Protocol: SIRT 1 activity of candidate SIRT 1 activator compounds synthesized based on the benzo[d]furan backbone were measured using a SIRT 1 fluorometric drug discovery kit (AK-555, Biomol). Briefly, as the substrate for analysis, 0.2 U/L of Fluor de Lys-SIRT 1 substrate developer mixture is used, which is amino acid 379382 of human […] AC), and SIRT 1 incubated with cosubstrate NAD^+. The degree of initial deacetylation of SIRT 1 for 100 μM candidate was measured using 100 μM resveratrol as a positive control in 25 μM Fluor de Lys-Sirt1 and 25 μM NAD^+ environments. The reaction was stopped using Fluor de LysTM Developer II/2 mM nicotinamide, followed by measuring fluorescence (Excitation: 360 nm, Emission: 460 nm). The SIRT 1 activity for candidate SIRT 1 activator compounds synthesized based on the benzo[d]oxazole backbone were measured using SIRT 1 fluorometric drug discovery kit (AK-555, Biomol). Briefly, 0.2 U/L of Fluor de Lys-SIRT 1 substrate developer mixture liquid was used as the analytical substrate, meaning amino acid 379382 of human […] […] The initial degree of deacetylation of SIRT 1 for 100 μM candidate was measured using 100 μM resveratrol as a positive control in 25 μM Fluor de Lys-Sirt1 and 25 μM NAD+. The reaction was stopped using Fluor de LysTM Developer II/2 mM nicotinamide, followed by fluorescence (Excitation: 360 nm, Emission: 460 nm).

CPT1 and ACOX1 = assay: Liver mRNA expression of fat oxidation related genes, quantitative real-time PCR; assay type: in vivo, mouse; conditions: db/db mice, oral 5 mg/kg daily for 4 weeks, treated vs db/db group
Protocol: Since obesity and insulin resistance are representative diseases directly related to the development of non-alcoholic fatty liver, the improvement effect of Compound 32u on fatty liver was analyzed. Compound 32u was orally administered to db/db mice (9 weeks old) at a concentration of 5 mg/kg daily for 4 weeks. First, the accumulation of fat in the liver, the most representative phenotype, was measured. Briefly, about 50 mg of liver was quantified in cold phosphate buffered saline (PBS) or 0.9% sodium chloride (NaCl) and crushed, followed by treating with mixed solvent of chloroform and methanol (MeOH) in a volume ratio of 2:1 and reacted for 2 hours. […] Thereafter, the amount of neutral fat was measured by absorbance using a neutral fat measurement kit (Stanbio laboratory, TX USA). In order to confirm the corresponding mechanism, mRNA expression of genes related to fat synthesis and degradation was analyzed. […] For the synthesized cDNA, a quantative real-time polymerase chain reaction (quantative real-time PCR) was performed to target the desired gene as a primer and quantify it in real time. Since obesity and insulin resistance are representative diseases directly related to the development of non-alcoholic fatty liver, the improvement effect of Compound 70c on fatty liver was analyzed. […] First, the accumulation of fat in the liver, the most representative phenotype, was measured. […]

Row | SMILES | fasting blood glucose (db/db mice) | glucose tolerance (blood glucose concentration) (db/db mice) | SIRT 1 activity (SIRT 1) | expression of fat oxidation related genes (CPT1 and ACOX1) (CPT1 and ACOX1)
1 | Cl.O=C(Nc1ccccc1-c1cc2ccc(CN3CCNCC3)cc2o1)c1ccc2ccccc2c1 [Compound 32u, N-(2-(6-(Piperazin-1-ylmethyl)benzofuran-2-yl)phenyl)-2-naphthamide hydrochloride] | reduced | glucose tolerance was restored | higher SIRT 1 activity effect than resveratrol | not significantly different
2 | O=C(Nc1ccccc1-c1nc2cc(CN3CCN(C4CCCCC4)CC3)ccc2o1)c1ccc2ccccc2c1 [Compound 70c, N-(2-(5-((4-Cyclohexylpiperazin-1-yl)methyl)benzo[d]oxazol-2-yl)phenyl)-2-naphthamide] | reduced | glucose tolerance was restored | higher SIRT 1 activity effect than resveratrol | not significantly different
